# Patent publication US10131652B2, “Pyrimidinyloxy benzene derivatives as herbicides” (E. I. DU PONT DE NEMOURS AND COMPANY, priority 2014, dated 2018)
# Where two headings read alike, the source gives them in different places.
# Experiments:
# Assay in all cases: Test D pre-/postemergence plant response
# Format in all cases: in vivo
# [1] = test system: pigweed (Amaranthus retroflexus); conditions: Amaranthus retroflexus; for pest or weed control at 125 g/ha: 125 g ai/ha
# How it was run: (§1)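 Sown seed (loam/sand soil) treated preemergence; emerged plants, 1- to 4-leaf stage and 2 to 18 cm, treated postemergence in peat/vermiculite medium. Greenhouse incubation 13–15 d. Endpoint: visual 0–100 rating versus untreated.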
# [2] = test system: johnsongrass (Sorghum halepense); conditions: Sorghum halepense; for pest or weed control at 31 g/ha: 31 g ai/ha; for pest or weed control at 62 g/ha: 62 g ai/ha; for pest or weed control at 125 g/ha: 125 g ai/ha
# How it was run: as §1
# [3] = test system: soybean (Glycine max); conditions: Glycine max; for plant injury at 31 g/ha: 31 g ai/ha; for plant injury at 62 g/ha: 62 g ai/ha; for plant injury at 125 g/ha: 125 g ai/ha
# How it was run: as §1
# [4] = test system: ragweed (common ragweed, Ambrosia elatior); conditions: Ambrosia artemisiifolia; for pest or weed control at 31 g/ha: 31 g ai/ha; for pest or weed control at 62 g/ha: 62 g ai/ha; for pest or weed control at 125 g/ha: 125 g ai/ha
# How it was run: as §1
# [5] = test system: barnyardgrass (Echinochloa crus-galli); conditions: Echinochloa crus-galli; for pest or weed control at 16 g/ha: 16 g ai/ha; for pest or weed control at 31 g/ha: 31 g ai/ha; for pest or weed control at 62 g/ha: 62 g ai/ha; for pest or weed control at 125 g/ha: 125 g ai/ha
# How it was run: as §1
# [6] = test system: yellow nutsedge (Cyperus esculentus); conditions: Cyperus; for pest or weed control at 31 g/ha: 31 g ai/ha; for pest or weed control at 62 g/ha: 62 g ai/ha; for pest or weed control at 125 g/ha: 125 g ai/ha
# How it was run: as §1
# [7] = test system: blackgrass (Alopecurus myosuroides); conditions: Alopecurus myosuroides; for pest or weed control at 16 g/ha: 16 g ai/ha; for pest or weed control at 31 g/ha: 31 g ai/ha; for pest or weed control at 62 g/ha: 62 g ai/ha; for pest or weed control at 125 g/ha: 125 g ai/ha
# How it was run: as §1
# [8] = post-emergence, Postemergence, scale 0 to 100, 0 no effect, 100 complete control, read-out: Plant response rating, Johnsongrass
# [9] = pre-emergence, Preemergence, scale 0 to 100 (0 no effect, 100 complete control), read-out: Plant response rating, Johnsongrass
# [10] = post-emergence, Postemergence, scale 0 to 100, 0 no effect, 100 complete control, read-out: Plant response rating, Soybean
# [11] = pre-emergence, Preemergence, scale 0 to 100 (0 no effect, 100 complete control), read-out: Plant response rating, Soybean
# [12] = post-emergence, Postemergence, scale 0 to 100, 0 no effect, 100 complete control, read-out: Plant response rating, Ragweed
# [13] = pre-emergence, Preemergence, scale 0 to 100 (0 no effect, 100 complete control), read-out: Plant response rating, Ragweed
# [14] = post-emergence, Postemergence, scale 0 to 100 (0 no effect, 100 complete control), read-out: Barnyardgrass plant response rating
# [15] = post-emergence, Postemergence, scale 0 to 100, 0 no effect, 100 complete control, read-out: Plant response rating, Barnyardgrass
# [16] = pre-emergence, Preemergence, scale 0 to 100 (0 no effect, 100 complete control), read-out: Plant response rating, Barnyardgrass
# [17] = post-emergence, Postemergence, scale 0 to 100, 0 no effect, 100 complete control, read-out: Plant response rating, Nutsedge, Yellow
# [18] = pre-emergence, Preemergence, scale 0 to 100 (0 no effect, 100 complete control), read-out: Plant response rating, Nutsedge, Yellow
# [19] = post-emergence, Postemergence, scale 0 to 100 (0 no effect, 100 complete control), read-out: Blackgrass plant response rating
# [20] = post-emergence, Postemergence, scale 0 to 100, 0 no effect, 100 complete control, read-out: Plant response rating, Blackgrass
# [21] = pre-emergence, Preemergence, scale 0 to 100 (0 no effect, 100 complete control), read-out: Plant response rating, Blackgrass
smiles,measurement,setting,value
"Fc1cccc(Oc2ncc(Br)cn2)c1-c1cc(C(F)F)no1 [Compound 145, 5-bromo-2-[2-[3-(difluoromethyl)-5-isoxazolyl]-3-fluorophenoxy]pyrimidine]",pest or weed control at 125 g/ha,"[1]; post-emergence, Postemergence, scale 0 to 100, 0 no effect, 100 complete control, read-out: Plant response rating, Pigweed",98%
same,pest or weed control at 125 g/ha,"[1]; pre-emergence, Preemergence, read-out: Plant response rating (scale 0 to 100), Pigweed",100%
same,pest or weed control at 16 g/ha,"[1]; pre-emergence, Preemergence, 16 g ai/ha, scale 0 to 100 (0 no effect, 100 complete control), read-out: Plant response rating, Pigweed",100%
same,pest or weed control at 31 g/ha,"[1]; pre-emergence, Preemergence, 31 g ai/ha, scale 0 to 100 (0 no effect, 100 complete control), read-out: Plant response rating, Pigweed",100%
same,pest or weed control at 62 g/ha,"[1]; pre-emergence, Preemergence, 62 g ai/ha, scale 0 to 100 (0 no effect, 100 complete control), read-out: Plant response rating, Pigweed",100%
same,pest or weed control at 31 g/ha,"[2]; post-emergence, Postemergence, scale 0 to 100 (0 no effect, 100 complete control), read-out: Johnsongrass plant response rating",5%
same,pest or weed control at 62 g/ha,[2]; [8],5%
same,pest or weed control at 125 g/ha,[2]; [8],40%
same,pest or weed control at 125 g/ha,"[2]; pre-emergence, Preemergence, read-out: Plant response rating (scale 0 to 100), Johnsongrass",95%
same,pest or weed control at 16 g/ha,"[2]; pre-emergence, Preemergence, 16 g ai/ha, scale 0 to 100 (0 no effect, 100 complete control), read-out: Plant response rating, Johnsongrass",10%
same,pest or weed control at 31 g/ha,[2]; [9],75%
same,pest or weed control at 62 g/ha,[2]; [9],90%
same,plant injury at 31 g/ha,"[3]; post-emergence, Postemergence, scale 0 to 100 (0 no effect, 100 complete control), read-out: Soybean plant response rating",60%
same,plant injury at 62 g/ha,[3]; [10],75%
same,plant injury at 125 g/ha,[3]; [10],75%
same,plant injury at 125 g/ha,"[3]; pre-emergence, Preemergence, read-out: Plant response rating (scale 0 to 100), Soybean",90%
same,plant injury at 16 g/ha,"[3]; pre-emergence, Preemergence, 16 g ai/ha, scale 0 to 100 (0 no effect, 100 complete control), read-out: Plant response rating, Soybean",10%
same,plant injury at 31 g/ha,[3]; [11],60%
same,plant injury at 62 g/ha,[3]; [11],75%
same,pest or weed control at 31 g/ha,"[4]; post-emergence, Postemergence, scale 0 to 100 (0 no effect, 100 complete control), read-out: Ragweed plant response rating",50%
same,pest or weed control at 62 g/ha,[4]; [12],50%
same,pest or weed control at 125 g/ha,[4]; [12],65%
same,pest or weed control at 125 g/ha,"[4]; pre-emergence, Preemergence, read-out: Plant response rating (scale 0 to 100), Ragweed",100%
same,pest or weed control at 16 g/ha,"[4]; pre-emergence, Preemergence, 16 g ai/ha, scale 0 to 100 (0 no effect, 100 complete control), read-out: Plant response rating, Ragweed",25%
same,pest or weed control at 31 g/ha,[4]; [13],60%
same,pest or weed control at 62 g/ha,[4]; [13],75%
same,pest or weed control at 16 g/ha,[5]; [14],5%
same,pest or weed control at 31 g/ha,[5]; [14],5%
same,pest or weed control at 62 g/ha,[5]; [15],10%
same,pest or weed control at 125 g/ha,[5]; [15],30%
same,pest or weed control at 125 g/ha,"[5]; pre-emergence, Preemergence, read-out: Plant response rating (scale 0 to 100), Barnyardgrass",100%
same,pest or weed control at 16 g/ha,[5]; [16],65%
same,pest or weed control at 31 g/ha,[5]; [16],85%
same,pest or weed control at 62 g/ha,[5]; [16],85%
same,pest or weed control at 31 g/ha,"[6]; post-emergence, Postemergence, scale 0 to 100 (0 no effect, 100 complete control), read-out: Nutsedge, Yellow plant response rating",5%
same,pest or weed control at 62 g/ha,[6]; [17],5%
same,pest or weed control at 125 g/ha,[6]; [17],10%
same,pest or weed control at 125 g/ha,"[6]; pre-emergence, Preemergence, read-out: Plant response rating (scale 0 to 100), Nutsedge, Yellow",45%
same,pest or weed control at 16 g/ha,"[6]; pre-emergence, Preemergence, 16 g ai/ha, scale 0 to 100 (0 no effect, 100 complete control), read-out: Plant response rating, Nutsedge, Yellow",0%
same,pest or weed control at 31 g/ha,[6]; [18],0%
same,pest or weed control at 62 g/ha,[6]; [18],30%
same,pest or weed control at 16 g/ha,[7]; [19],15%
same,pest or weed control at 31 g/ha,[7]; [19],20%
same,pest or weed control at 62 g/ha,[7]; [20],25%
same,pest or weed control at 125 g/ha,[7]; [20],80%
same,pest or weed control at 125 g/ha,"[7]; pre-emergence, Preemergence, read-out: Plant response rating (scale 0 to 100), Blackgrass",95%
same,pest or weed control at 16 g/ha,[7]; [21],15%
same,pest or weed control at 31 g/ha,[7]; [21],90%
same,pest or weed control at 62 g/ha,[7]; [21],95%
